Assay results reported in patent US4308249A, “Radiopharmaceutical complexes of N-(tri-substituted alkyl)-iminodiacetic acids” (priority 1979, dated 1981).

Legend:
[1] = Disposition of radioactivity in rabbit after i.v. chelate, Anger camera scintigraphy (Table 1); assay type: in vivo, New Zealand rabbit; design: key to Relative Distribution of Chelate: Vascular / Relative Distribution of Chelate: Liver / Relative Distribution of Chelate: Gallbladder / Relative Distribution of Chelate: Intestine: -: no statistically significant measured radioactivity; ±: relative amounts of measured radioactivity; +: relative amounts of measured radioactivity; ++: relative amounts of measured radioactivity; +++: the maximum measured radioactivity
Description: (§1) A volume of a solution of the chelate of technetium-99 m and N-(3-cyano-3,3-diphenylpropyl)-iminodiacetic acid prepared as in Examples 1 and 2 in the range of 0.1 to 1.0 milliliter and having a radioactivity of 1.2 millicuries and containing 0.5 to 5 milligrams of the chelate was administered intravenously to an anesthetized New Zealand rabbit weighing about 3 kilograms using a 1 milliliter tuberculin syringe connected to a #23 gauge indwelling cannula inserted into a marginal ear vein. The rabbit was positioned in a full ventral position for four hours during which time the disposition of the radioactivity in the rabbit in this position was monitored using a computer-augmented Anger camera.
(§2) At various times after administration of a solution of a chelate of this invention which are indicated in Tables 1-4, scintiscan photographs and video tape recordings were taken of the rabbit, female beagle and monkey using the Anger camera. This instrument was a Pho-Gamma LFOV Scintillation Camera System, Model 6413, fitted with a Model 3137 Vari-Back Camera, a Model 3122 Data-Store/Playback System and a Model 27851 Analog-Digital/Digital-Analog Converter (all Searle Radiographics, Inc.). This entire system was interfaced with a Xerox 530 computer (Xerox Corp., Minneapolis, Minn.) which was programmed to record net counts per unit of time and percents of total counts in individual organs and to plot organ radioactivity versus time and to separate the radioactivity of the gallbladder from the radioactivity of the liver. The camera was operated with a 140 keV high resolution Type II converging collimator using a 20 percent technetium-99 m window. Generally 400,000 counts were accumulated on each scintiscan using both video tape and self-developing film, with the animal in the full ventral position. The photographs represented a visualization of the anatomic relationships in the hepatobiliary system.
(§3) The video tape was processed by computer for quantification of the distribution of the technetium-99 m chelate radioactivity in the organs of the animals. Tables 1-4 contain semi-quantitative representations of the distribution of radioactivity in the organs of the test animals calculated from the scintiscans. In Tables 1-4, (-), (±), (+), (++) and (+++) indicate relative amounts of measured radioactivity ranging from (-) for no statistically significant measured radioactivity to (+++) for the maximum measured radioactivity.

[2] = Disposition of radioactivity in female beagle dog after i.v. chelate, Anger camera scintigraphy (Tables 2 and 3, FIG. 1); assay type: in vivo; design: key to Relative Distribution of Chelate: Vascular / Relative Distribution of Chelate: Liver / Relative Distribution of Chelate: Gallbladder: -: no statistically significant measured radioactivity; ±: relative amounts of measured radioactivity; +: relative amounts of measured radioactivity; ++: relative amounts of measured radioactivity; +++: the maximum measured radioactivity; conditions: for Relative Distribution of Chelate: Gallbladder / Relative Distribution of Chelate: Liver / Relative Distribution of Chelate: Vascular: i.v.
Description: (§4) This procedure used with the rabbit was repeated with additional anesthetized animals; a female beagle dog weighing 9.25 kilograms, and a female rhesus monkey weighing 7.9 kilograms. Again 0.1 to 1.0 milliliter of the solution containing 0.5 to 5 milligrams of the same chelate and prepared as in Examples 1 and 2 was administered in each case. One difference was that unlike the case of the rabbit, the chelate solution was injected intravenously in the saphenous vein of the dog or monkey. In separate tests with the female beagle, (1) a solution having 1.13 mCi of the chelate and (2) a solution having a 3.10 mCi of the chelate were administered, and the disposition of radioactivity in the dog was monitored for one hour and 3 hours, respectively. In addition, FIG. 1 represents results of the test involving administration of 3.10 mCi of radioactive chelate to the female beagle dog.
as §2, §3
The disappearance of the radioactive chelate from the liver and its appearance in the gallbladder of the female beagle as well as the presence of the radioactive chelate in the total hepatobiliary system of the female beagle was calculated from video tape measurements by the computer and are plotted as percentages of total radioactivity administered in the form of the radioactive chelate versus time after administration in FIG. 1. At about 120 minutes after administration, about 75 percent of the total radioactivity administered was concentrated in the gallbladder, and in excess of 90 percent of the total dose of the radioactive chelate was in the hepatobiliary system. Approximately 50 percent of the radioactive chelate in the total hepatobiliary system had passed from the liver into the gallbladder within about 45 minutes after administration.

[3] = Disposition of radioactivity in female rhesus monkey after i.v. chelate, Anger camera scintigraphy (Table 4); assay type: in vivo; design: key to Relative Distribution of Chelate: Vascular / Relative Distribution of Chelate: Liver / Relative Distribution of Chelate: Gallbladder / Relative Distribution of Chelate: Intestine: -: no statistically significant measured radioactivity; ±: relative amounts of measured radioactivity; +: relative amounts of measured radioactivity; ++: relative amounts of measured radioactivity; +++: the maximum measured radioactivity
Description: as §4
(§5) In the test using the female rhesus monkey, 0.1 to 1.0 milliliter of a solution of the chelate of technetium-99 m and N-(3-cyano-3,3-diphenylpropyl)-iminodiacetic acid prepared as in Examples 1 and 2 and having a radioactivity of 1.23 mCi and containing 0.5 to 5 milligrams of the same chelate was administered and the disposition of the radioactive material in the monkey was monitored for one hour.
as §2, §3

[4] = Plasma clearance of radioactivity in female beagle, gamma spectrometer (FIG. 2); assay type: in vivo, female beagle dog
Description: In addition, periodically during the time of monitoring the distribution of radioactivity in the female beagle, blood samples were removed from the jugular vein of the animal and collected in vacuum tubes containing the disodium salt of ethylendiaminetetraacetic acid and the radioactivity of one milliliter samples of plasma was measured in a gamma spectrometer.
(§6) The gamma spectrometer employed was a Model 1185 Gamma Scintillation Spectrometer (Searle Analytic Inc., Des Plaines, Ill.). One milliliter samples of plasma or whole blood were analyzed for technetium-99 m, and samples were counted for 1 minute. FIGS. 2 and 3 show the radioactivity present in the plasma or whole blood, respectively, versus the time in hours after administration of the chelate to the animals. As determined by the computer, curves A and B were the best fitting curves passing through the plots of experimentally measured radioactivities. […] This illustrates that, after being distributed throughout the body the chelate of this invention is cleared relatively quickly from the […].

[5] = Whole blood clearance of radioactivity in male mongrel dog, gamma spectrometer (FIG. 3); assay type: in vivo
Description: The procedures for injecting and taking and analyzing blood samples from the female beagle were repeated with a male mongrel dog weighing 14.1 kilograms, and the results are presented in FIG. 3. In this case, a sample of 0.1 to 1.0 milliliter of a solution of the chelate of technetium-99 m and N-(3-cyano-3,3-diphenylpropyl)-iminodiacacetic acid prepared as in Examples 1 and 2 and having a radioactivity of 3.08 mCi and containing 0.5 to 5 milligrams of the chelate was administered. In this case, the radioactivity of one milliliter samples of whole blood was measured.
as §6

[6] = Urinary excretion of radioactivity in male mongrel dog; assay type: in vivo; conditions: through 2 hours after administration
[7] = Organ radioactivity and imaging in test animals (all species) after i.v. chelate; assay type: in vivo, rabbit, dog, monkey
Description: as §1, §4, §5, §2

[8] = i.v., 1.2 mCi, minutes after administration: 0.5, 3, 10, 20, 30, 60, 120, 180, 240
[9] = within 120 minutes after administration
[10] = female beagle, about 120 minutes after administration
[11] = female beagle, 1.13 mCi (Table 2), minutes after administration: 1, 10, 20, 30, 40, 50, 60
[12] = female beagle, 3.10 mCi (Table 3), minutes after administration: b87 10, b88 25, b89 35, b90 65, b91 102, b92 160
[13] = i.v., 1.23 mCi, minutes after administration: 1, 10, 20, 30, 40, 50, 60
[14] = test animals, first 3 hours after administration

chelate of technetium-99 m and N-(3-cyano-3,3-diphenylpropyl)-iminodiacetic acid
route of clearance from the vascular system [1]: solely by the liver and biliary excretion
time to appearance of chelate in the gallbladder [1]: ≤ 3 min
Relative Distribution of Chelate: Gallbladder [1, 8]: - and + and ++
Relative Distribution of Chelate: Intestine [1, 8]: - and + and ++ and +++
Relative Distribution of Chelate: Liver [1, 8]: +++ and ++ and + and ± and -
Relative Distribution of Chelate: Vascular [1, 8]: ++ and -
radioactivity of heart, aorta, kidneys and liver ([1]; within 0.5 minutes after administration): strongly radioactive
amount in the gallbladder [1, 9]: a relatively small amount
amount of chelate in the intestine [1, 9]: the bulk of the chelate
radioactivity in the hepatic parenchyma [1, 9]: no measurable radioactivity
administered chelate appeared in the liver ([2]; dog, within 15 minutes after administration): more than 70%
appearance of the chelate in the gallbladder compared with rabbit ([2]; female beagle): slower than in the case of the rabbit
excretion of the chelate from the gallbladder into the intestine compared with rabbit or monkey ([2]; female beagle): slower in the female beagle than either in the rabbit or monkey
route of clearance from the vascular system ([2]; female beagle): exclusively by the liver and biliary excretion
total dose of the radioactive chelate in the hepatobiliary system [2, 10]: > 90%
total radioactivity administered concentrated in the gallbladder [2, 10]: about 75%
Relative Distribution of Chelate: Gallbladder [2, 11]: - and + and ++ and +++
Relative Distribution of Chelate: Liver [2, 11]: ++ and +++ and +
Relative Distribution of Chelate: Vascular [2, 11]: ++ and -
Relative Distribution of Chelate: Gallbladder [2, 12]: - and + and ++ and +++
Relative Distribution of Chelate: Liver [2, 12]: +++ and ++ and + and ± and -
Relative Distribution of Chelate: Vascular [2, 12]: + and -
radioactive chelate in the total hepatobiliary system passed from the liver into the gallbladder ([2]; female beagle, within about 45 minutes after administration): Approximately 50%
administered radioactivity accumulated in the hepatobiliary system ([2]; female dog, during the first 30 minutes): more than 85%
appearance of the chelate in the gallbladder compared with rabbit [3]: slower than in the case of the rabbit
route of clearance from the vascular system [3]: exclusively by the liver and biliary excretion
Relative Distribution of Chelate: Gallbladder [3, 13]: - and +
Relative Distribution of Chelate: Intestine [3, 13]: - and + and ++ and +++
Relative Distribution of Chelate: Liver [3, 13]: +++ and ++ and +
Relative Distribution of Chelate: Vascular [3, 13]: + and -
clearance kinetics [4]: bi-exponential decay
half time of distributive phase of clearance [4]: 0.1 h
half time of elimination phase of clearance [4]: 1.5 h
clearance kinetics [5]: bi-exponential decay
half time of distributive phase of clearance ([5]; 3.08 mCi): 0.13 h
half time of elimination phase of clearance ([5]; 3.08 mCi): 3.5 h
total radioactivity administered found in the urine [6]: less than 0.5%
distribution throughout the cardiovascular system ([7]; after intravenous administration): rapidly distributed throughout the cardiovascular system
imaging of liver and gallbladder ([7]; all species, first 3 hours after administration): in all species the conformation of these organs was easily seen and distinguished
urinary excretion ([7]; in vivo): virtually no urinary excretion
ratio of measured radioactivity in the gallbladder to measured background radioactivity [7, 14]: 150-200 to 1
ratio of measured radioactivity of the liver to measured background radiation [7, 14]: 10-20 to 1
